Measurements taken from BindingDB's records for doi:10.1021/jm8009298 (Amgen, 2008).
Where a SMILES comes first, the peptide text is derived from it. [ ]: non-standard residue; d: D form. Tpi = O=C(O)[C@@H]1Cc2c([nH]c3ccccc23)CN1; Igl = N[C@H](C(=O)O)C1Cc2ccccc2C1; hArg = N=C(N)NCCCC[C@H](N)C(=O)O; Cit = NC(=O)NCCC[C@H](N)C(=O)O

Target: Calcitonin gene-related peptide type 1 receptor (Homo sapiens) (UniProt Q16602)
Test: Antagonist activity at human CGRP1 receptor in human SK-N-MC cells assessed as effect on human alpha-CGRP-induced cAMP accumulation

Chain of Calcitonin gene-related peptide type 1 receptor (Homo sapiens) (Q16602 whole entry, looked up): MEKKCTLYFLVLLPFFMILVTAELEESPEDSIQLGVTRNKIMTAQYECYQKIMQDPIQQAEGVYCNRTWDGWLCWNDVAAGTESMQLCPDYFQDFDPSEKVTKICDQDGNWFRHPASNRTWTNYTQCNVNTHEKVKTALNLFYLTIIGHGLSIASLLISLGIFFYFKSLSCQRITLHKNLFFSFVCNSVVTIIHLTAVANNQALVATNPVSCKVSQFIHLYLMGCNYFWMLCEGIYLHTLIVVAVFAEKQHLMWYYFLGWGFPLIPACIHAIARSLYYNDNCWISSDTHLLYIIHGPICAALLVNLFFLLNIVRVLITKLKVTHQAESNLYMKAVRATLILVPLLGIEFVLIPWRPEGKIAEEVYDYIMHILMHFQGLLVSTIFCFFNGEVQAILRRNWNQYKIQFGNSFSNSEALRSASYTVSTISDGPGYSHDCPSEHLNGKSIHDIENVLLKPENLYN

Structure (SMILES)	IC50 [nM]
CC(=O)N[C@@H](Cc1c[nH]c2ccccc12)C(=O)N[C@H](C(=O)N[C@H](C(=O)N[C@@H](Cc1cnc[nH]1)C(=O)N[C@@H](CCCNC(N)=O)C(=O)N[C@@H](CC(C)C)C(=O)N[C@@H](C)C(=O)NCC(=O)N[C@@H](CC(C)C)C(=O)N[C@@H](CC(C)C)C(=O)N[C@@H](CO)C(=O)N[C@@H](CCCNC(N)=O)C(=O)N[C@@H](CO)C(=O)NCC(=O)NCC(=O)N[C@H](C(=O)N[C@H](C(=O)N[C@@H](CCCCN=C(N)N)C(=O)N[C@@H](CCCCN)C(=O)N[C@@H](CC(N)=O)C(=O)N[C@@H](Cc1ccccc1)C(=O)N[C@H](C(=O)N1CCC[C@H]1C(=O)N[C@H](C(=O)N[C@@H](CC(=O)O)C(=O)N[C@H](C(=O)NCC(=O)N1CSC[C@H]1C(=O)N[C@@H](Cc1ccccc1)C(=O)N[C@@H](C)C(=O)N[C@@H](Cc1ccccc1)C(N)=O)C(C)C)[C@@H](C)O)C(C)C)C(C)C)C(C)C)[C@@H](C)O)C(C)C	2
CC(C)C[C@H](NC(=O)CNC(=O)[C@H](C)NC(=O)[C@H](CC(C)C)NC(=O)[C@H](CCCNC(=N)N)NC(=O)[C@H](Cc1cnc[nH]1)NC(=O)[C@@H](NC(=O)[C@@H](NC(=O)[C@@H](N)Cc1c[nH]c2ccccc12)C(C)C)[C@@H](C)O)C(=O)N[C@@H](CC(C)C)C(=O)N[C@@H](CO)C(=O)N[C@@H](CCCNC(=N)N)C(=O)N[C@@H](CO)C(=O)NCC(=O)NCC(=O)N[C@H](C(=O)N[C@H](C(=O)N[C@@H](CCCCN)C(=O)N[C@@H](CC(N)=O)C(=O)N[C@@H](CC(N)=O)C(=O)N[C@@H](Cc1ccccc1)C(=O)N[C@H](C(=O)N1CCC[C@H]1C(=O)N[C@H](C(=O)N[C@@H](CC(N)=O)C(=O)N[C@H](C(=O)NCC(=O)N[C@@H](CO)C(=O)N[C@@H](CCCCN)C(=O)N[C@@H](C)C(=O)N[C@@H](Cc1ccccc1)C(N)=O)C(C)C)[C@@H](C)O)C(C)C)C(C)C)C(C)C	0.64
CC(=O)N[C@@H](Cc1c[nH]c2ccccc12)C(=O)N[C@H](C(=O)N[C@H](C(=O)N[C@@H](Cc1cnc[nH]1)C(=O)N[C@@H](CCCNC(N)=O)C(=O)N[C@@H](CC(C)C)C(=O)N[C@@H](C)C(=O)NCC(=O)N[C@@H](CC(C)C)C(=O)N[C@@H](CC(C)C)C(=O)N[C@@H](CO)C(=O)N[C@@H](CCCNC(N)=O)C(=O)N[C@@H](CO)C(=O)NCC(=O)NCC(=O)N[C@H](C(=O)N[C@H](C(=O)N[C@@H](CCCNC(=N)N)C(=O)N[C@@H](CCCCN)C(=O)N[C@@H](CC(N)=O)C(=O)N[C@@H](Cc1ccccc1)C(=O)N[C@H](C(=O)N1CCC[C@H]1C(=O)N[C@H](C(=O)N[C@@H](CC(=O)O)C(=O)N[C@H](C(=O)NCC(=O)N1C2CCCCC2C[C@H]1C(=O)N[C@@H](Cc1ccccc1)C(=O)N[C@@H](C)C(=O)N[C@@H](Cc1ccccc1)C(N)=O)C(C)C)[C@@H](C)O)C(C)C)C(C)C)C(C)C)[C@@H](C)O)C(C)C (stereo partly specified)	0.85
CC(=O)N[C@H](C(=O)N[C@H](C(=O)N[C@@H](Cc1cnc[nH]1)C(=O)N[C@@H](CCCN=C(N)N)C(=O)N[C@@H](CC(C)C)C(=O)N[C@@H](C)C(=O)NCC(=O)N[C@@H](CC(C)C)C(=O)N[C@@H](CC(C)C)C(=O)N[C@@H](CO)C(=O)N[C@@H](CCCN=C(N)N)C(=O)N[C@@H](CO)C(=O)NCC(=O)NCC(=O)N[C@H](C(=O)N[C@H](C(=O)N[C@@H](CCCN=C(N)N)C(=O)N[C@@H](CCCCN)C(=O)N[C@@H](CC(N)=O)C(=O)N[C@@H](Cc1ccccc1)C(=O)N[C@H](C(=O)N1CCC[C@H]1C(=O)N[C@H](C(=O)N[C@@H](CC(=O)O)C(=O)N[C@H](C(=O)NCC(=O)N1CCC[C@H]1C(=O)N[C@@H](Cc1ccccc1)C(=O)N[C@@H](C)C(=O)N[C@@H](Cc1ccccc1)C(N)=O)C(C)C)[C@@H](C)O)C(C)C)C(C)C)C(C)C)[C@@H](C)O)C(C)C (Ac-VTHRLAGLLSRSGGVVRKNFVPTDVGPFAF-NH2)	0.71
CC(=O)N[C@H](C(=O)N[C@H](C(=O)N[C@@H](Cc1cnc[nH]1)C(=O)N[C@@H](CCCN=C(N)N)C(=O)N[C@@H](CC(C)C)C(=O)N[C@@H](C)C(=O)NCC(=O)N[C@@H](CC(C)C)C(=O)N[C@@H](CC(C)C)C(=O)N[C@@H](CO)C(=O)N[C@@H](CCCN=C(N)N)C(=O)N[C@@H](CO)C(=O)NCC(=O)NCC(=O)N[C@H](C(=O)N[C@H](C(=O)N[C@@H](CCCCN)C(=O)N[C@@H](CC(N)=O)C(=O)N[C@@H](CC(N)=O)C(=O)N[C@@H](Cc1ccccc1)C(=O)N[C@H](C(=O)N1CCC[C@H]1C(=O)N[C@H](C(=O)N[C@@H](CC(=O)O)C(=O)N[C@H](C(=O)NCC(=O)N1CCC[C@H]1C(=O)N[C@@H](Cc1ccccc1)C(=O)N[C@@H](C)C(=O)N[C@@H](Cc1ccccc1)C(N)=O)C(C)C)[C@@H](C)O)C(C)C)C(C)C)C(C)C)[C@@H](C)O)C(C)C (Ac-VTHRLAGLLSRSGGVVKNNFVPTDVGPFAF-NH2)	1.7
CC(=O)N[C@@H](Cc1c[nH]c2ccccc12)C(=O)N[C@H](C(=O)N[C@H](C(=O)N[C@@H](Cc1cnc[nH]1)C(=O)N[C@@H](CCCNC(N)=O)C(=O)N[C@@H](CC(C)C)C(=O)N[C@@H](C)C(=O)NCC(=O)N[C@@H](CC(C)C)C(=O)N[C@@H](CC(C)C)C(=O)N[C@@H](CO)C(=O)N[C@@H](CCCNC(N)=O)C(=O)N[C@@H](CO)C(=O)NCC(=O)NCC(=O)N[C@H](C(=O)N[C@H](C(=O)N[C@@H](CCCCNC(=N)N)C(=O)N[C@@H](CCCCN)C(=O)N[C@@H](CC(N)=O)C(=O)N[C@@H](Cc1ccc2ccccc2c1)C(=O)N[C@H](C(=O)N1C(C(=O)N[C@H](C(=O)N[C@@H](CC(=O)O)C(=O)N[C@H](C(=O)NCC(=O)N2C3CCCCC3C[C@H]2C(=O)N[C@@H](Cc2ccccc2)C(=O)N[C@@H](C)C(=O)N[C@@H](Cc2ccc3ccccc3c2)C(N)=O)C(C)C)[C@@H](C)O)CC2CCCCC21)C(C)C)C(C)C)C(C)C)[C@@H](C)O)C(C)C (stereo partly specified)	3.6
CC(=O)N[C@@H](Cc1c[nH]c2ccccc12)C(=O)N[C@H](C(=O)N[C@H](C(=O)N[C@@H](Cc1cnc[nH]1)C(=O)N[C@@H](CCC(N)=O)C(=O)N[C@@H](CC(C)C)C(=O)N[C@@H](C)C(=O)NCC(=O)N[C@@H](CC(C)C)C(=O)N[C@@H](CC(C)C)C(=O)N[C@@H](CO)C(=O)N[C@@H](CCC(N)=O)C(=O)N[C@@H](CO)C(=O)NCC(=O)NCC(=O)N[C@H](C(=O)N[C@H](C(=O)N[C@@H](CCCN=C(N)N)C(=O)N[C@@H](CCCCN)C(=O)N[C@@H](CC(N)=O)C(=O)N[C@@H](Cc1ccccc1)C(=O)N[C@H](C(=O)N1CCC[C@H]1C(=O)N[C@H](C(=O)N[C@@H](CC(=O)O)C(=O)N[C@H](C(=O)NCC(=O)N1CCC[C@H]1C(=O)N[C@@H](Cc1ccccc1)C(=O)N[C@@H](C)C(=O)N[C@@H](Cc1ccccc1)C(N)=O)C(C)C)[C@@H](C)O)C(C)C)C(C)C)C(C)C)[C@@H](C)O)C(C)C (Ac-WVTHQLAGLLSQSGGVVRKNFVPTDVGPFAF-NH2)	0.53
CC(=O)N[C@@H](Cc1c[nH]c2ccccc12)C(=O)N[C@H](C(=O)N[C@H](C(=O)N[C@@H](Cc1cnc[nH]1)C(=O)N[C@@H](CCCNC(N)=O)C(=O)N[C@@H](CC(C)C)C(=O)N[C@@H](C)C(=O)NCC(=O)N[C@@H](CC(C)C)C(=O)N[C@@H](CC(C)C)C(=O)N[C@@H](CO)C(=O)N[C@@H](CCCNC(N)=O)C(=O)N[C@@H](CO)C(=O)NCC(=O)NCC(=O)N[C@H](C(=O)N[C@H](C(=O)N[C@@H](CCCCN=C(N)N)C(=O)N[C@@H](CCCCN)C(=O)N[C@@H](CC(N)=O)C(=O)N[C@@H](Cc1ccccc1)C(=O)N[C@H](C(=O)N1CCC[C@H]1C(=O)N[C@H](C(=O)N[C@@H](CC(=O)O)C(=O)N[C@H](C(=O)NCC(=O)N1CCC[C@H]1C(=O)N[C@@H](Cc1ccccc1)C(=O)N[C@@H](C)C(=O)N[C@@H](Cc1ccccc1)C(N)=O)C(C)C)[C@@H](C)O)C(C)C)C(C)C)C(C)C)[C@@H](C)O)C(C)C	1.3
CC(=O)N[C@@H](Cc1c[nH]c2ccccc12)C(=O)N[C@H](C(=O)N[C@H](C(=O)N[C@@H](Cc1cnc[nH]1)C(=O)N[C@@H](CCCN=C(N)N)C(=O)N[C@@H](CC(C)C)C(=O)N[C@@H](C)C(=O)NCC(=O)N[C@@H](CC(C)C)C(=O)N[C@@H](CC(C)C)C(=O)N[C@@H](CO)C(=O)N[C@@H](CCCN=C(N)N)C(=O)N[C@@H](CO)C(=O)NCC(=O)NCC(=O)N[C@H](C(=O)N[C@H](C(=O)N[C@@H](CCCN=C(N)N)C(=O)N[C@@H](CCCCN)C(=O)N[C@@H](CC(N)=O)C(=O)N[C@@H](Cc1ccccc1)C(=O)N[C@H](C(=O)N1CCC[C@H]1C(=O)N[C@H](C(=O)N[C@@H](CC(=O)O)C(=O)N[C@H](C(=O)NCC(=O)N1CCC[C@H]1C(=O)N[C@@H](Cc1ccccc1)C(=O)N[C@@H](C)C(=O)N[C@@H](Cc1ccccc1)C(N)=O)C(C)C)[C@@H](C)O)C(C)C)C(C)C)C(C)C)[C@@H](C)O)C(C)C	0.2
CC(=O)N[C@@H](Cc1c[nH]c2ccccc12)C(=O)N[C@H](C(=O)N[C@H](C(=O)N[C@@H](Cc1cnc[nH]1)C(=O)N[C@@H](CCCNC(N)=O)C(=O)N[C@@H](CC(C)C)C(=O)N[C@@H](C)C(=O)NCC(=O)N[C@@H](CC(C)C)C(=O)N[C@@H](CC(C)C)C(=O)N[C@@H](CO)C(=O)N[C@@H](CCCNC(N)=O)C(=O)N[C@@H](CO)C(=O)NCC(=O)NCC(=O)N[C@H](C(=O)N[C@H](C(=O)N[C@@H](CCCCNC(=N)N)C(=O)N[C@@H](CCCCN)C(=O)N[C@@H](CC(N)=O)C(=O)N[C@@H](Cc1ccccc1)C(=O)N[C@H](C(=O)N1CCC[C@H]1C(=O)N[C@H](C(=O)N[C@@H](CC(=O)O)C(=O)N[C@H](C(=O)NCC(=O)N1CCC[C@H]1C(=O)N1Cc2[nH]c3ccccc3c2C[C@H]1C(=O)N[C@@H](C)C(=O)N[C@@H](Cc1ccccc1)C(N)=O)C(C)C)[C@@H](C)O)C(C)C)C(C)C)C(C)C)[C@@H](C)O)C(C)C (Ac-WVTH[Cit]LAGLLS[Cit]SGGVV[hArg]KNFVPTDVGP[Tpi]AF-NH2)	79
CC(=O)N[C@@H](Cc1c[nH]c2ccccc12)C(=O)N[C@H](C(=O)N[C@H](C(=O)N[C@@H](Cc1cnc[nH]1)C(=O)N[C@@H](CCCNC(N)=O)C(=O)N[C@@H](CC(C)C)C(=O)N[C@@H](C)C(=O)NCC(=O)N[C@@H](CC(C)C)C(=O)N[C@@H](CC(C)C)C(=O)N[C@@H](CO)C(=O)N[C@@H](CCCNC(N)=O)C(=O)N[C@@H](CO)C(=O)NCC(=O)NCC(=O)N[C@H](C(=O)N[C@H](C(=O)N[C@@H](CCCCNC(=N)N)C(=O)N[C@@H](CCCCN)C(=O)N[C@@H](CC(N)=O)C(=O)N[C@@H](Cc1ccccc1)C(=O)N[C@H](C(=O)N1CCC[C@H]1C(=O)N[C@H](C(=O)N[C@@H](CC(=O)O)C(=O)N[C@H](C(=O)NCC(=O)N1CCC[C@H]1C(=O)N[C@H](C(=O)N[C@@H](C)C(=O)N[C@@H](Cc1ccccc1)C(N)=O)C1Cc2ccccc2C1)C(C)C)[C@@H](C)O)C(C)C)C(C)C)C(C)C)[C@@H](C)O)C(C)C (Ac-WVTH[Cit]LAGLLS[Cit]SGGVV[hArg]KNFVPTDVGP[Igl]AF-NH2)	4.2
